# Data from patent US20030224942A1, “Alkylamino-1,3,5-triazines, processes for their preparation and their use as herbicides and plant growth regulators” (priority 2001, published 2003).
# Experiments:
# [1] = test system: Cyperus spp., Echinochloa spp., Digitaria spp., Sagitaria spp. and Scirpus spp.; assay: Action on harmful plants in rice (paddy rice conditions, visual scoring); assay type: in vivo, typical rice weeds (gramineous and broad-leaved); details: applied into the dammed water, visual scoring about three weeks after application
# How it was run: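 Under paddy conditions with 2-3 cm dammed water, transplanted and sown rice plus weeds were treated at three-leaf stage (E. crus-galli at 1.5 leaves). Pots stayed in greenhouse under optimum growth conditions for the test period, with visual assessment of damage.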
# [2] = test system: Chenopodium spp., Papaver spp., Polygonum spp., Veronica spp. or Viola spp.; assay: Post-emergence effect on weeds (greenhouse pot test, visual scoring); assay type: in vivo, monocotyledonous and dicotyledonous weeds; details: treated at three-leaf stage; visual scoring after about 3 to 4 weeks; application rate of 0.5 kg and less of active substance per hectare
SMILES,herbicidal activity against harmful plants which are typical for rice crops [1],herbicidal activity post-emergence against harmful plants [2]
CC#Cc1cc(CNc2nc(N)nc(CC)n2)ccc1F [Product P6.384],very good herbicidal activity,very good herbicidal activity
C#Cc1ccc(C(C)Nc2nc(N)nc(C(C)C)n2)cc1C (stereo not drawn) [Product P12.335],very good herbicidal activity,very good herbicidal activity
C#Cc1ccc(C(C)Nc2nc(N)nc(CC)n2)cc1F (stereo not drawn) [Product P7.1620],very good herbicidal activity,very good herbicidal activity
C#Cc1cccc(C(Nc2nc(N)nc(C(C)C)n2)C2CC2)c1 (stereo not drawn) [Product P14.1579],very good herbicidal activity,very good herbicidal activity
Cc1nc(N)nc(NCc2cc(F)c(C3CC3)c(F)c2)n1 [Product P1.960],very good herbicidal activity,very good herbicidal activity
CC#Cc1c(F)cc(C(Nc2nc(N)nc(C(C)(C)F)n2)C2CC2)cc1F (stereo not drawn) [Product P19.428],very good herbicidal activity,very good herbicidal activity
Cc1nc(N)nc(NCc2cccc(C3CC3)c2)n1 [Product P1.1603],very good herbicidal activity,very good herbicidal activity
C#Cc1ccc(C(C)Nc2nc(N)nc(C(C)C)n2)cc1F (stereo not drawn) [Product P12.1620],very good herbicidal activity,very good herbicidal activity
CC#Cc1c(F)cc(C(C)Nc2nc(C)nc(N)n2)cc1F (stereo not drawn) [Product P2.428],very good herbicidal activity,very good herbicidal activity
CC(F)c1nc(N)nc(NCc2cccc(C(F)=C(F)F)c2)n1 (stereo not drawn) [Product P21.1567],very good herbicidal activity,very good herbicidal activity
C#Cc1ccc(CNc2nc(N)nc(C(F)CC)n2)cc1 (stereo not drawn) [Product P26.1580],very good herbicidal activity,very good herbicidal activity
C#Cc1cc(C(C)Nc2nc(N)nc(C(C)F)n2)ccc1F (stereo not drawn) [Product P22.309],very good herbicidal activity,very good herbicidal activity
CC(F)c1nc(N)nc(NC(c2cccc(C(F)=C(F)F)c2)C2CC2)n1 (stereo not drawn) [Product P24.1567],very good herbicidal activity,very good herbicidal activity
CC(C)(F)c1nc(N)nc(NCc2cccc(C3CC3)c2)n1 [Product P16.1603],very good herbicidal activity,very good herbicidal activity
CC(F)c1nc(N)nc(NC(C)c2cccc(C(F)=C(F)F)c2)n1 (stereo not drawn) [Product P22.1567],very good herbicidal activity,very good herbicidal activity
C#Cc1cccc(C(C)Nc2nc(N)nc(C(C)F)n2)c1 (stereo not drawn) [Product P22.1579],very good herbicidal activity,very good herbicidal activity
C#Cc1cccc(C(Nc2nc(N)nc(C(C)(C)F)n2)C2CC2)c1 (stereo not drawn) [Product P19.1579],very good herbicidal activity,very good herbicidal activity
CC#Cc1cc(CNc2nc(N)nc(C(C)(C)F)n2)ccc1F [Product P16.384],very good herbicidal activity,very good herbicidal activity
CC(O)C#Cc1cccc(C(C)Nc2nc(N)nc(C(C)F)n2)c1 (stereo not drawn) [Product P22.1600],very good herbicidal activity,very good herbicidal activity
CCC(F)c1nc(N)nc(NCc2cccc(C(F)=C(F)F)c2)n1 (stereo not drawn) [Product P26.1567],very good herbicidal activity,very good herbicidal activity
C#Cc1c(F)cc(CNc2nc(N)nc(C(F)CC)n2)cc1F (stereo not drawn) [Product P26.352],very good herbicidal activity,very good herbicidal activity

SMILES,herbicidal activity against harmful plants which are typical for rice crops [1],herbicidal activity post-emergence against harmful plants [2]
CCCCC#Cc1cc(C(C)Nc2nc(N)nc(C(C)F)n2)ccc1F (stereo not drawn) [Product P22.688],very good herbicidal activity,very good herbicidal activity
CC(Nc1nc(N)nc(C(C)(C)F)n1)c1ccc(F)c(C(F)=C(F)F)c1 (stereo not drawn) [Product P17.5],very good herbicidal activity,very good herbicidal activity
CCC(F)c1nc(N)nc(NCc2ccc(C3CC3)cc2)n1 (stereo not drawn) [Product P26.1604],very good herbicidal activity,very good herbicidal activity
CCCCC#Cc1cccc(C(C)Nc2nc(N)nc(C(C)(C)F)n2)c1 (stereo not drawn) [Product P17.1594],very good herbicidal activity,very good herbicidal activity
CC(Nc1nc(N)nc(C(C)(C)F)n1)c1cccc(C(F)=C(F)F)c1 (stereo not drawn) [Product P17.1567],very good herbicidal activity,very good herbicidal activity
CC(O)C#Cc1ccc(C(C)Nc2nc(N)nc(C(C)(C)F)n2)cc1 (stereo not drawn) [Product P17.1601],very good herbicidal activity,very good herbicidal activity
CC#Cc1ccc(CNc2nc(N)nc(C(C)(C)F)n2)cc1 [Product P16.1583],very good herbicidal activity,very good herbicidal activity
C#Cc1cc(CNc2nc(C)nc(N)n2)ccc1F [Product P1.309],very good herbicidal activity,very good herbicidal activity
CCc1nc(N)nc(NC(C)c2ccc(C(F)=C(F)F)cc2)n1 (stereo not drawn) [Product P7.1568],very good herbicidal activity,very good herbicidal activity
CC#Cc1cc(C(C)Nc2nc(N)nc(C(C)F)n2)ccc1F (stereo not drawn) [Product P22.384],very good herbicidal activity,very good herbicidal activity
CC#Cc1cccc(CNc2nc(C)nc(N)n2)c1 [Product P1.1582],very good herbicidal activity,very good herbicidal activity
C#Cc1ccc(C(C)Nc2nc(N)nc(C(C)F)n2)cc1C (stereo not drawn) [Product P22.335],very good herbicidal activity,very good herbicidal activity
CCc1nc(N)nc(NC(c2cccc(C3CC3)c2)C2CC2)n1 (stereo not drawn) [Product P9.1603],very good herbicidal activity,very good herbicidal activity
CCc1nc(N)nc(NCc2ccc(F)c(C3CC3)c2)n1 [Product P6.916],very good herbicidal activity,very good herbicidal activity
CCc1nc(N)nc(NCc2cc(F)c(C(F)=C(F)F)c(F)c2)n1 [Product P6.49],very good herbicidal activity,very good herbicidal activity
CC#Cc1cccc(C(C)Nc2nc(N)nc(C(C)(C)F)n2)c1 (stereo not drawn) [Product P17.1582],very good herbicidal activity,very good herbicidal activity
C#Cc1ccc(C(C)Nc2nc(N)nc(CC)n2)cc1C (stereo not drawn) [Product P7.335],very good herbicidal activity,very good herbicidal activity
CC#Cc1ccc(CNc2nc(N)nc(CC)n2)cc1 [Product P6.1583],very good herbicidal activity,very good herbicidal activity
CC(C)c1nc(N)nc(NCc2ccc(C3CC3)cc2)n1 [Product P11.1604],very good herbicidal activity,very good herbicidal activity
C#Cc1cccc(C(C)Nc2nc(N)nc(C(C)C)n2)c1 (stereo not drawn) [Product P12.1579],very good herbicidal activity,very good herbicidal activity
CC#Cc1cccc(C(Nc2nc(C)nc(N)n2)C2CC2)c1 (stereo not drawn) [Product P4.1582],very good herbicidal activity,very good herbicidal activity
